The subject of assay [1] is SW620 cells (KRAS G12V). In words: Cell-based pERK HTRF assay in SW620 cell (Biological Example 4). The following applies: pERK HTRF. The essentials: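 SW620 (KRAS G12V) cells seeded at 3×10^4/well in RPMI, 10% FBS, then treated next day for 4 h with a 9-point half-log series from 1 μM top (0.25% DMSO). Lysates analyzed for pERK by HTRF (Eu cryptate/d2 antibodies, 4–24 h at room temperature), excitation 320 nm, emission 615 nm.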

Assay [2] deals with GP2d cells (KRAS G12D). In words: Cell-based pERK HTRF assay in GP2d cell (Biological Example 2). As to conditions: GP2d (KRAS G12D) cells, pERK HTRF. The essentials: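 Cells grown in DMEM with 10% FBS were exposed to compound for 60 min at 0.25% DMSO, using a 9-point half-log series starting at 1 μM or 100 nM. Lysates were then mixed with d2 and Eu cryptate antibodies for 4–24 h at room temperature, and pERK was read by HTRF.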
For orientation: In TR-FRET formats the signal depends on donor and acceptor labels being close together.

Assay [3] deals with T1, Avi-KRAS G12D (1-169) GppNHp/RAF1 RBD-3xFLAG (52-151) (Homo sapiens, UniProt P01116, G12D).
T1 construct: Avi-KRAS G12D (1-169)
T1 sequence (P01116 1-169 isoform P01116-2 G12D): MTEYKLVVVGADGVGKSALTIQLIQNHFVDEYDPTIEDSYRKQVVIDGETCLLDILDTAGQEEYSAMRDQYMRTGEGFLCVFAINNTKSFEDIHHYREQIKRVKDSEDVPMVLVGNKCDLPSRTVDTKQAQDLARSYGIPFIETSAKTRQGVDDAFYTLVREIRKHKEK
The experiment in a line: Raf1-KRAS G12D-GppNHP disruption HTRF assay (Biological Example 1). The assay is classed as binding. As to conditions: KRAS G12D-GppNHp/RAF1 RBD HTRF. The procedure, abridged:
(§1)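 Protein mix, 1 h RT, 700 rpm; reagent mix, 1 h RT, 700 rpm; HTRF read. Buffer Tris pH 7.5/NaCl/MgCl2/BSA/Tween, 10% DMSO. Output % activity, DMSO = 100%.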

Assay [4] has as its target T2, Avi-KRAS WT (1-169) GppNHp/RAF1 RBD-3xFLAG (52-151) (Homo sapiens, UniProt P01116).
T2 construct: Avi-KRAS WT (1-169)
The experiment in a line: Raf1-KRAS WT-GppNHP disruption HTRF assay (Biological Example 1). The assay is classed as binding. The following applies: KRAS WT-GppNHp/RAF1 RBD HTRF. The procedure, abridged: as §1

Assay [5] addresses T3, Avi-KRAS G12R (1-169) GppNHp/RAF1 RBD-3xFLAG (52-151) (Homo sapiens, UniProt P01116, G12R).
T3 construct: Avi-KRAS G12R (1-169)
The experiment in a line: Raf1-KRAS G12R-GppNHP disruption HTRF assay (Biological Example 1). The assay is classed as binding. The following applies: KRAS G12R-GppNHp/RAF1 RBD HTRF. The essentials: as §1

Assay [6] has as its target T4, Avi-KRAS G12V (1-169) GppNHp/RAF1 RBD-3xFLAG (52-151) (Homo sapiens, UniProt P01116, G12V).
T4 construct: Avi-KRAS G12V (1-169)
In words: Raf1-KRAS G12V-GppNHP disruption HTRF assay (Biological Example 1). The assay is classed as binding. As to conditions: KRAS G12V-GppNHp/RAF1 RBD HTRF. The essentials:
as §1

The mark [7] stands for this setting: Homo sapiens, SW-620, SW620 (KRAS G12V) cells.

The text below walks through data of patent US20260042764A1, “COMPOSITIONS AND METHODS FOR INHIBITION OF KRAS” (TheRas, Inc., priority 2022, published 2026).

A value given as a limit tells only on which side of the number the result lay.

T2 sequence (P01116 1-169 isoform P01116-2): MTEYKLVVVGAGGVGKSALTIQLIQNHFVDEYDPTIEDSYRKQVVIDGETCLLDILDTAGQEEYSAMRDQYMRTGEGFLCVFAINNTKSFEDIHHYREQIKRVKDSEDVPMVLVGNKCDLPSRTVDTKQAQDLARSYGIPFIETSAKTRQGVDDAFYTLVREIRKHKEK
T3 sequence (P01116 1-169 isoform P01116-2 G12R): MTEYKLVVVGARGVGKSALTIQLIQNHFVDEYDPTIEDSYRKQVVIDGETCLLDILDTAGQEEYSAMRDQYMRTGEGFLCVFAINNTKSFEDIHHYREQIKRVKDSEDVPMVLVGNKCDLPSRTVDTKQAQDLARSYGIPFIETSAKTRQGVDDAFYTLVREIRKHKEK
T4 sequence (P01116 1-169 isoform P01116-2 G12V): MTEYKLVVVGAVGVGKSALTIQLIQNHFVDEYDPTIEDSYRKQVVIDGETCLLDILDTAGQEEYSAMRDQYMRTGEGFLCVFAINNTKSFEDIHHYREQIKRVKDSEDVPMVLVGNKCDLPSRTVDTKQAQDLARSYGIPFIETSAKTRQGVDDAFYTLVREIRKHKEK

As a reminder, the IC50 is the concentration at which inhibition is half-maximal. Read a high IC50 as lower potency. `C[C@@H]1Cn2nc(C(=O)N(C)C)cc2CN1c1nc(OC[C@@]23CCCN2C[C@H](F)C3)nc2c(F)c(-c3ccc(F)c4sc(N)c(C#N)c34)c(C(F)(F)F)cc12` [Compound 510]: the half-maximal inhibitory concentration (IC50) in assay [1] (setting [7]) was under 100 nM; in assay [2] (GP2d), under 100 nM; in assay [3] it was 1000 to 10000 nM; in assay [4], 1000 to 10000 nM; in assay [5] it was 100 to 1000 nM; in assay [6], 1000 to 10000 nM.

In the case of `N#Cc1c(N)sc2c(F)ccc(-c3c(C(F)(F)F)cc4c(N5CCn6nc(C(=O)N7CCC(O)C7)cc6C5)nc(OCC56CCCN5CC(F)C6)nc4c3F)c12` (stereo not drawn) [Compound 513], the IC50 was 100 to 1000 nM in assay [1] (SW620 (KRAS G12V) cells); under 100 nM in assay [2]; 100 to 1000 nM in assay [3]; 100 to 1000 nM in assay [4]; 100 to 1000 nM in assay [5]; 100 to 1000 nM in assay [6].

As to `CC(=O)N1CC[C@@H]2[C@H]1CN2c1nc(OC[C@@]23CCCN2C[C@H](F)C3)nc2c(F)c(-c3ccc(F)c4sc(N)c(C#N)c34)c(C(F)(F)F)cc12` [Compound 514], the IC50 in assay [1] (setting [7]) was under 100 nM; in assay [2] (GP2d), under 100 nM; in assay [3], 100 to 1000 nM; in assay [4], 100 to 1000 nM; in assay [5], 100 to 1000 nM; in assay [6], 100 to 1000 nM.

Take `CCC(=O)N1CC[C@@H]2[C@H]1CN2c1nc(OC[C@@]23CCCN2C[C@H](F)C3)nc2c(F)c(-c3ccc(F)c4sc(N)c(C#N)c34)c(C(F)(F)F)cc12` [Compound 515]: the half-maximal inhibitory concentration (IC50) was under 100 nM in assay [1] (setting [7]); under 100 nM in assay [2] (GP2d); 100 to 1000 nM in assay [3]; 100 to 1000 nM in assay [4]; 100 to 1000 nM in assay [5]; 100 to 1000 nM in assay [6].

Take `[2H]C1([2H])CN2C[C@H](F)C[C@]2(COc2nc(N(C)[C@@H]3CCN(C(=O)C4CC4)[C@@H]3C)c3cc(C(F)(F)F)c(-c4ccc(F)c5sc(N)c(C#N)c45)c(F)c3n2)C1` [Compound 522]: the IC50 in assay [1] (setting [7]) was under 100 nM; in assay [2] (GP2d), under 100 nM; in assay [3], 100 to 1000 nM; in assay [4], under 100 nM; in assay [5] it was under 100 nM; in assay [6], 100 to 1000 nM.

For `CCN(c1nc(OC[C@@]23CCCN2C[C@H](F)C3)nc2c(F)c(-c3ccc(F)c4sc(N)c(C#N)c34)c(C(F)(F)F)cc12)[C@H]1CC(=O)N(C(C)C)C1` [Compound 528], the half-inhibitory concentration (IC50) is 100 to 1000 nM in assay [1] (setting [7]); under 100 nM in assay [2] (GP2d); 1000 to 10000 nM in assay [3]; 1000 to 10000 nM in assay [4]; 1000 to 10000 nM in assay [5]; 1000 to 10000 nM in assay [6].

In the case of `N#Cc1c(N)sc2c(F)ccc(-c3c(C(F)(F)F)cc4c(N5CC6OCC5C6F)nc(OC[C@@]56CCCN5C[C@H](F)C6)nc4c3F)c12` (stereo partly drawn) [Compound 531], the IC50 is under 100 nM in assay [1] (setting [7]); under 100 nM in assay [2] (GP2d); 100 to 1000 nM in assay [3]; 100 to 1000 nM in assay [4]; 100 to 1000 nM in assay [5]; 100 to 1000 nM in assay [6].

With `N#Cc1c(N)sc2c(F)ccc(-c3c(C(F)(F)F)cc4c(N5C[C@@H]6[C@H]5CCN6C(=O)C5CC5)nc(OC[C@@]56CCCN5C[C@H](F)C6)nc4c3F)c12` [Compound 535], the IC50 in assay [1] (setting [7]) was under 100 nM; in assay [2] (GP2d) it was under 100 nM; in assay [3] it was 1000 to 10000 nM; in assay [4], 1000 to 10000 nM; in assay [5] it was 1000 to 10000 nM; in assay [6] it was 1000 to 10000 nM.

For the compound `CC(C)C(=O)N1CC[C@@H]2[C@H]1CN2c1nc(OC[C@@]23CCCN2C[C@H](F)C3)nc2c(F)c(-c3ccc(F)c4sc(N)c(C#N)c34)c(C(F)(F)F)cc12` [Compound 536], the IC50 in assay [1] (setting [7]) was under 100 nM; in assay [2] (GP2d) it was under 100 nM; in assay [3], 1000 to 10000 nM; in assay [4], 1000 to 10000 nM; in assay [5], 1000 to 10000 nM; in assay [6] it was 1000 to 10000 nM.
